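A five-concentration, 48-hour dose response in 96-well plates underlies each endpoint, interpolated linearly between surrounding concentrations. TGI is the concentration that stops growth completely.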
Legend:
Assay in all cases: inhibition of tumour cell growth, NCI panel, 48 h
T-47D breast = tested on: T-47D breast
OVCAR-5 ovarian = tested on: OVCAR-5 ovarian
MCF7 breast = tested on: MCF7 breast
TK-10 renal = tested on: TK-10 renal
HOP-62 NSCLC = tested on: HOP-62 NSCLC
LOX IMVI melanoma = tested on: LOX IMVI melanoma
SW-620 colon = tested on: SW-620 colon
HCT-116 colon = tested on: HCT-116 colon
HS 578T breast = tested on: HS 578T breast
M14 melanoma = tested on: M14 melanoma
HCC-2998 colon = tested on: HCC-2998 colon
HT29 colon = tested on: HT29 colon
SF-539 CNS = tested on: SF-539 CNS
MDA-MB-231 breast = tested on: MDA-MB-231 breast
UO-31 renal = tested on: UO-31 renal
786-0 renal = tested on: 786-0 renal
RXF 393 renal = tested on: RXF 393 renal
CAKI-1 renal = tested on: CAKI-1 renal
OVCAR-8 ovarian = tested on: OVCAR-8 ovarian
OVCAR-4 ovarian = tested on: OVCAR-4 ovarian
COLO 205 colon = tested on: COLO 205 colon
SK-MEL-2 melanoma = tested on: SK-MEL-2 melanoma
MOLT-4 leukemia = tested on: MOLT-4 leukemia
OVCAR-3 ovarian = tested on: OVCAR-3 ovarian
SNB-75 CNS = tested on: SNB-75 CNS
DU-145 prostate = tested on: DU-145 prostate
K-562 leukemia = tested on: K-562 leukemia
UACC-257 melanoma = tested on: UACC-257 melanoma
SK-MEL-28 melanoma = tested on: SK-MEL-28 melanoma
EKVX NSCLC = tested on: EKVX NSCLC
NCI-H522 lung = tested on: NCI-H522 lung
SN12C renal = tested on: SN12C renal
HOP-92 NSCLC = tested on: HOP-92 NSCLC
A549 NSCLC = tested on: A549 NSCLC
RPMI-8226 leukemia = tested on: RPMI-8226 leukemia
HCT-15 colon = tested on: HCT-15 colon
NCI-H226 lung = tested on: NCI-H226 lung
U251 CNS = tested on: U251 CNS
PC-3 prostate = tested on: PC-3 prostate
KM12 colon = tested on: KM12 colon
NCI/ADR-RES ovarian = tested on: NCI/ADR-RES ovarian
HL-60(TB) leukemia = tested on: HL-60(TB) leukemia
A498 renal = tested on: A498 renal
SK-OV-3 ovarian = tested on: SK-OV-3 ovarian
SF-268 CNS = tested on: SF-268 CNS
SK-MEL-5 melanoma = tested on: SK-MEL-5 melanoma
ACHN renal = tested on: ACHN renal
MDA-MB-435 = tested on: MDA-MB-435
MDA-N = tested on: MDA-N
CCRF-CEM leukemia = tested on: CCRF-CEM leukemia
SNB-19 CNS = tested on: SNB-19 CNS
NCI-H23 lung = tested on: NCI-H23 lung
MALME-3M melanoma = tested on: MALME-3M melanoma
IGROV1 ovarian = tested on: IGROV1 ovarian
SF-295 CNS = tested on: SF-295 CNS
UACC-62 melanoma = tested on: UACC-62 melanoma
SR leukemia = tested on: SR leukemia
NCI-H460 lung = tested on: NCI-H460 lung

Measured: TGI

CCC#CCCCCCCCCC(F)C(=O)O (centres undefined)
> 100 µM: T-47D breast | OVCAR-5 ovarian | MCF7 breast | TK-10 renal | HOP-62 NSCLC | LOX IMVI melanoma | SW-620 colon | HCT-116 colon | HS 578T breast | M14 melanoma | HCC-2998 colon | HT29 colon | SF-539 CNS | MDA-MB-231 breast | UO-31 renal | 786-0 renal | RXF 393 renal | CAKI-1 renal | OVCAR-8 ovarian | OVCAR-4 ovarian | COLO 205 colon | SK-MEL-2 melanoma | MOLT-4 leukemia | OVCAR-3 ovarian | SNB-75 CNS | DU-145 prostate | K-562 leukemia | UACC-257 melanoma | SK-MEL-28 melanoma | EKVX NSCLC | NCI-H522 lung | SN12C renal | HOP-92 NSCLC | A549 NSCLC | RPMI-8226 leukemia | HCT-15 colon | NCI-H226 lung | U251 CNS | PC-3 prostate | KM12 colon | NCI/ADR-RES ovarian | HL-60(TB) leukemia | A498 renal | SK-OV-3 ovarian | SF-268 CNS | SK-MEL-5 melanoma | ACHN renal | MDA-MB-435 | MDA-N | CCRF-CEM leukemia | SNB-19 CNS | NCI-H23 lung | MALME-3M melanoma | IGROV1 ovarian | SF-295 CNS

CNc1cc(N)ccc1C(=O)N1CCC[C@H]1CO
> 100 µM: T-47D breast | OVCAR-5 ovarian | MCF7 breast | TK-10 renal | UACC-62 melanoma | HOP-62 NSCLC | LOX IMVI melanoma | SW-620 colon | HCT-116 colon | HS 578T breast | M14 melanoma | HT29 colon | SR leukemia | SF-539 CNS | MDA-MB-231 breast | UO-31 renal | 786-0 renal | OVCAR-8 ovarian | SK-MEL-2 melanoma | NCI-H460 lung | MOLT-4 leukemia | OVCAR-3 ovarian | SNB-75 CNS | DU-145 prostate | K-562 leukemia | UACC-257 melanoma | SK-MEL-28 melanoma | EKVX NSCLC | NCI-H522 lung | SN12C renal | HOP-92 NSCLC | A549 NSCLC | RPMI-8226 leukemia | HCT-15 colon | NCI-H226 lung | U251 CNS | PC-3 prostate | KM12 colon | NCI/ADR-RES ovarian | A498 renal | SK-OV-3 ovarian | SF-268 CNS | ACHN renal | MDA-MB-435 | MDA-N | SNB-19 CNS | IGROV1 ovarian | SF-295 CNS

Cc1c(C(=O)C(=O)c2ccccc2)c(C)c(C(=O)C(=O)c2ccccc2)c(C)c1C(=O)C(=O)c1ccccc1
> 100 µM: T-47D breast | OVCAR-5 ovarian | MCF7 breast | TK-10 renal | HOP-62 NSCLC | SW-620 colon | HCT-116 colon | HS 578T breast | M14 melanoma | HCC-2998 colon | HT29 colon | SR leukemia | SF-539 CNS | MDA-MB-231 breast | UO-31 renal | 786-0 renal | OVCAR-8 ovarian | OVCAR-4 ovarian | COLO 205 colon | NCI-H460 lung | MOLT-4 leukemia | SNB-75 CNS | K-562 leukemia | UACC-257 melanoma | SK-MEL-28 melanoma | EKVX NSCLC | NCI-H522 lung | SN12C renal | A549 NSCLC | RPMI-8226 leukemia | HCT-15 colon | U251 CNS | PC-3 prostate | KM12 colon | NCI/ADR-RES ovarian | HL-60(TB) leukemia | SK-OV-3 ovarian | SF-268 CNS | SK-MEL-5 melanoma | ACHN renal | MDA-MB-435 | MDA-N | CCRF-CEM leukemia | SNB-19 CNS | IGROV1 ovarian | SF-295 CNS

— PubChem BioAssay (NCI)
